Series [1] relates to hPSCs. Put plainly: Cell death of hPSCs on Gsk3 inhibitor treatment in albumin-free medium. Format: cell-based, human. The procedure:
hPSCs maintained on a Synthemax-coated surface in E8 or mTeSR1 medium were dissociated into single cells with Accutase® (Life Technologies) at 37° C. for 5 min and then seeded onto a Synthemax-coated cell culture dish at 100,000-200,000 cell/cm^2 in E8 supplemented with 5 μM ROCK inhibitor Y-27632 (Selleckchem)(day −2) for 24 hours. Cells were then cultured in E8, changed daily. […] At day 0 the cell density should be between 250,000 and 400,000 cells/cm^2. At day 3, half the medium was changed to fresh RPMI medium containing 2.5 μM IWP2 (Tocris). At day 5, the entire medium was changed with RPMI medium. Cells were maintained in the cardiomyocyte maintenance medium (CMM: RPMI supplemented with 10 μg/ml insulin (sigma) and 200 μg/ml L-Ascorbic acid 2-phosphate sesquimagnesium salt hydrate (sigma)) starting from day 7, with the medium changed every 2 days.

Series [2] deals with brachyury expression in ES03 hESCs. Put plainly: Brachyury expression (mesendoderm induction) by western blot and immunostaining. It is filed as cell-based, human. The method, then: Cells were fixed with 4% paraformaldehyde for 15 min at room temperature and then stained with primary and secondary antibodies (Table 3) in PBS plus 0.4% Triton X-100 and 5% non-fat dry milk (Bio-Rad). Nuclei were stained with Gold Anti-fade Reagent with DAPI (Invitrogen). An epifluorescence microscope (Leica DM IRB) with a QImaging® Retiga 4000R camera was used for imaging analysis. Cells were lysed in M-PER Mammalian Protein Extraction Reagent (Pierce) in the presence of Halt Protease and Phosphatase Inhibitor Cocktail (Pierce). Proteins were separated by 10% Tris-Glycine SDS/PAGE (Invitrogen) under denaturing conditions and transferred to a nitrocellulose membrane. After blocking with 5% dried milk in TBST, the membrane was incubated with primary antibody overnight at 4° C. The membrane was then washed, incubated with an anti-mouse/rabbit peroxidase-conjugated secondary antibody (Table 3) at room temperature for 1 hour, and developed by SuperSignal chemiluminescence (Pierce).

For `Cc1c[nH]c(-c2cnc(NCCNc3ccc(C#N)cn3)nc2-c2ccc(Cl)cc2Cl)n1` [CH], the cell death entry in series [1] (12 μM at day 0, by 24 hr, absence of BSA) is reported as “prolific cell death”; in series [1] (same concentration of CH as Burridge et al., 2 days, albumin-free medium) it was “substantial cell death”. For the same molecule, the brachyury expression result in series [2] (6 μM CH, albumin-free RPMI, after 24 hr) is recorded as “induced robust brachyury expression”; in series [2] (30 μM CH, medium containing 1% HRA), “induced brachyury expression”; in series [2] (CH concentrations up to 6 μM, presence of 1% human recombinant albumin (HRA)), “unable to induce brachyury expression”.

These data come from patent US9765299B2, “Chemically defined albumin-free conditions for cardiomyocyte differentiation of human pluripotent stem cells” (Wisconsin Alumni Research Foundation, priority 2014, dated 2017).
